Reference: ChEMBL document CHEMBL4342421, “Current scenario of tetrazole hybrids for antibacterial activity” (Eur J Med Chem, 2019)
In brackets after ≈: the same amount, converted by molar mass. Values belong to the compound of their own block, whether it stands above or below them.

Key:
[1] = test system: Escherichia coli; experiment: Antimicrobial activity against Escherichia coli assessed as zone of inhibition at 0.001 mol/cm3; type: functional
[2] = test system: Staphylococcus aureus; experiment: Antimicrobial activity against Staphylococcus aureus assessed as zone of inhibition at 0.001 mol/cm3; type: functional
[3] = test system: Bacillus cereus; experiment: Antimicrobial activity against Bacillus cereus assessed as zone of inhibition at 0.001 mol/cm3; type: functional
[4] = test system: Staphylococcus aureus; experiment: Antimicrobial activity against Staphylococcus aureus ATCC 25923 after 24 hrs by disc diffusion method; type: functional; conditions: ATCC 25923, 24 h
[5] = test system: Escherichia coli; experiment: Antimicrobial activity against Escherichia coli ATCC 25922 after 24 hrs by disc diffusion method; type: functional; conditions: ATCC 25922, 24 h
[6] = test system: Pseudomonas aeruginosa; experiment: Antimicrobial activity against Pseudomonas aeruginosa ATCC 27853 after 24 hrs by disc diffusion method; type: functional; conditions: ATCC 27853, 24 h
[7] = test system: Klebsiella pneumoniae; experiment: Antimicrobial activity against Klebsiella pneumoniae after 24 hrs by disc diffusion method; type: functional
[8] = test system: Aspergillus flavus; experiment: Antifungal activity against Aspergillus flavus NCIM 524 after 3 to 4 days; type: functional
[9] = test system: Aspergillus fumigatus; experiment: Antifungal activity against Aspergillus fumigatus NCIM 902 after 3 to 4 days; type: functional
[10] = test system: Talaromyces marneffei; experiment: Antifungal activity against Penicillium marneffei after 3 to 4 days; type: functional
[11] = test system: Trichophyton mentagrophytes; experiment: Antifungal activity against Trichophyton mentagrophytes after 3 to 4 days; type: functional
[12] = test system: Escherichia coli; experiment: Antimicrobial activity against Escherichia coli after 24 hrs by agar disk diffusion method; type: functional
[13] = test system: Pseudomonas aeruginosa; experiment: Antimicrobial activity against Pseudomonas aeruginosa after 24 hrs by agar disk diffusion method; type: functional
[14] = test system: Klebsiella pneumoniae; experiment: Antimicrobial activity against Klebsiella pneumoniae after 24 hrs by agar disk diffusion method; type: functional
[15] = test system: Proteus mirabilis; experiment: Antimicrobial activity against Proteus mirabilis after 24 hrs by agar disk diffusion method; type: functional
[16] = test system: Escherichia coli; experiment: Antimicrobial activity against Escherichia coli assessed as zone of inhibition at 10 ug/ml; type: functional; conditions: read-out: IZ
[17] = test system: Candida albicans; experiment: Antifungal activity against Candida albicans assessed as zone of inhibition at 10 ug/ml; type: functional; conditions: read-out: IZ
[18] = test system: Bacillus subtilis; experiment: Antimicrobial activity against Bacillus subtilis assessed as zone of inhibition at 10 ug/ml; type: functional; conditions: read-out: IZ
[19] = test system: Lactococcus lactis; experiment: Antimicrobial activity against Streptococcus lactis assessed as zone of inhibition at 10 ug/ml; type: functional; conditions: read-out: IZ
[20] = test system: Pseudomonas; experiment: Antimicrobial activity against Pseudomonas assessed as zone of inhibition at 10 ug/ml; type: functional; conditions: read-out: IZ
[21] = test system: Streptomyces; experiment: Antimicrobial activity against Streptomyces assessed as zone of inhibition at 10 ug/ml; type: functional; conditions: read-out: IZ
[22] = test system: Aspergillus niger; experiment: Antifungal activity against Aspergillus niger assessed as zone of inhibition at 10 ug/ml; type: functional; conditions: read-out: IZ
[23] = test system: Penicillium; experiment: Antifungal activity against Penicillium assessed as zone of inhibition at 10 ug/ml; type: functional; conditions: read-out: IZ
[24] = Antifungal activity against Rhodotorula ingeniosa assessed as zone of inhibition at 10 ug/ml; type: functional; conditions: Sampaiozyma ingeniosa; read-out: IZ
[25] = test system: Bacillus subtilis; experiment: Antimicrobial activity against Bacillus subtilis; type: functional
[26] = test system: Proteus vulgaris; experiment: Antimicrobial activity against Proteus vulgaris; type: functional
[27] = test system: Salmonella typhimurium; experiment: Antimicrobial activity against Salmonella typhimurium; type: functional, Salmonella enterica subsp. enterica serovar Typhimurium; conditions: Salmonella enterica
[28] = test system: Staphylococcus aureus; experiment: Antimicrobial activity against Staphylococcus aureus assessed as zone of inhibition at 5 mg/ml after 24 to 48 hrs by well diffusion method; type: functional; conditions: read-out: IZ
[29] = test system: Bacillus subtilis; experiment: Antimicrobial activity against Bacillus subtilis assessed as zone of inhibition at 5 mg/ml after 24 to 48 hrs by well diffusion method; type: functional; conditions: read-out: IZ
[30] = test system: Streptococcus pneumoniae; experiment: Antimicrobial activity against Streptococcus pneumoniae; type: functional
[31] = test system: Proteus mirabilis; experiment: Antimicrobial activity against Proteus mirabilis; type: functional
[32] = test system: Prescottella equi; experiment: Antimicrobial activity against Rhodococcus equi; type: functional; conditions: Rhodococcus (subgen. Prescottella) equi
[33] = test system: Bacillus thuringiensis; experiment: Antimicrobial activity against Bacillus thuringiensis; type: functional
[34] = test system: Staphylococcus aureus; experiment: Antimicrobial activity against Staphylococcus aureus ATCC 25923 assessed as zone of inhibition at 100 ug/ml after 24 hrs by disc diffusion method; type: functional; conditions: ATCC 25923, 24 h, read-out: IZ

MIC [4]: 6.25 to 50 µg/mL (≈ 15.2 to 122 µM) | MIC [5]: 6.25 to 50 µg/mL (≈ 15.2 to 122 µM) | MIC [6]: 6.25 to 50 µg/mL (≈ 15.2 to 122 µM) | MIC [7]: 6.25 to 50 µg/mL (≈ 15.2 to 122 µM) | MIC [8]: 6.25 to 50 µg/mL (≈ 15.2 to 122 µM) | MIC [9]: 6.25 to 50 µg/mL (≈ 15.2 to 122 µM) | MIC [10]: 6.25 to 50 µg/mL (≈ 15.2 to 122 µM) | MIC [11]: 6.25 to 50 µg/mL (≈ 15.2 to 122 µM) | MIC [12]: 6.25 µg/mL (≈ 15.2 µM) | MIC [13]: 6.25 µg/mL (≈ 15.2 µM) | MIC [14]: 6.25 µg/mL (≈ 15.2 µM) | MIC [15]: 6.25 µg/mL (≈ 15.2 µM)
Structure (SMILES): c1ccc(Cn2nnnc2SCCCSc2nnnn2-c2ccccc2)cc1

MIC [4]: 6.25 to 50 µg/mL (≈ 17.3 to 139 µM) | MIC [5]: 6.25 to 50 µg/mL (≈ 17.3 to 139 µM) | MIC [6]: 6.25 to 50 µg/mL (≈ 17.3 to 139 µM) | MIC [7]: 6.25 to 50 µg/mL (≈ 17.3 to 139 µM) | MIC [8]: 6.25 to 50 µg/mL (≈ 17.3 to 139 µM) | MIC [9]: 6.25 to 50 µg/mL (≈ 17.3 to 139 µM) | MIC [10]: 6.25 to 50 µg/mL (≈ 17.3 to 139 µM) | MIC [11]: 6.25 to 50 µg/mL (≈ 17.3 to 139 µM)
Structure (SMILES): c1ccc(-n2nnnc2SCCCSc2nnnn2C2CC2)cc1

MIC [25]: 0.063 to 8 µg/mL (≈ 0.188 to 23.9 µM) | MIC [26]: 0.063 to 8 µg/mL (≈ 0.188 to 23.9 µM) | MIC [27]: 0.063 to 8 µg/mL (≈ 0.188 to 23.9 µM) | MIC [30]: 0.063 to 8 µg/mL (≈ 0.188 to 23.9 µM) | MIC [31]: 0.063 to 8 µg/mL (≈ 0.188 to 23.9 µM) | MIC [32]: 0.063 to 8 µg/mL (≈ 0.188 to 23.9 µM) | MIC [33]: 0.063 to 8 µg/mL (≈ 0.188 to 23.9 µM)
Structure (SMILES): CC1(C)S[C@@H]2[C@H](NC(=O)Cc3ccccc3)C(=O)N2[C@H]1C(=O)O [PENICILLIN G]
zone of inhibition at 5000 µg/mL [28]: 24.6 mm | zone of inhibition at 5000 µg/mL [29]: 26.2 mm | zone of inhibition at 100 µg/mL [34]: 10 to 24 mm

The next lines start with the compound.

Structure (SMILES): CCOC(=O)c1c(-n2cnnn2)sc(C(=O)c2ccccc2)c1C
inhibition zone (IZ) [1]: 22 - 24 mm | inhibition zone (IZ) [2]: 22 - 24 mm | inhibition zone (IZ) [3]: 22 - 24 mm

Structure (SMILES): CCn1nnnc1SCCCSc1nnnn1-c1ccccc1
MIC [4]: 6.25 to 50 µg/mL (≈ 17.9 to 143 µM) | MIC [5]: 6.25 to 50 µg/mL (≈ 17.9 to 143 µM) | MIC [6]: 6.25 to 50 µg/mL (≈ 17.9 to 143 µM) | MIC [7]: 6.25 to 50 µg/mL (≈ 17.9 to 143 µM) | MIC [8]: 6.25 to 50 µg/mL (≈ 17.9 to 143 µM) | MIC [9]: 6.25 to 50 µg/mL (≈ 17.9 to 143 µM) | MIC [10]: 6.25 to 50 µg/mL (≈ 17.9 to 143 µM) | MIC [11]: 6.25 to 50 µg/mL (≈ 17.9 to 143 µM)

Structure (SMILES): Cc1c(C(=O)c2ccccc2)sc(-n2cnnn2)c1C(=O)O
inhibition zone (IZ) [1]: 17 - 24 mm | inhibition zone (IZ) [2]: 17 - 24 mm | inhibition zone (IZ) [3]: 17 - 24 mm

Structure (SMILES): CC(=O)OC[C@H]1O[C@H](n2nnnc2Cn2nnc3ccccc32)[C@H](OC(C)=O)[C@@H](OC(C)=O)[C@@H]1OC(C)=O
zone of inhibition at 10 µg/mL [16]: 15 to 17 mm | zone of inhibition at 10 µg/mL [17]: 15 to 17 mm | zone of inhibition at 10 µg/mL [18]: 15 to 17 mm | zone of inhibition at 10 µg/mL [19]: 15 to 17 mm | zone of inhibition at 10 µg/mL [20]: 15 to 17 mm | zone of inhibition at 10 µg/mL [21]: 15 to 17 mm | zone of inhibition at 10 µg/mL [22]: 15 to 17 mm | zone of inhibition at 10 µg/mL [23]: 15 to 17 mm | zone of inhibition at 10 µg/mL [24]: 15 to 17 mm

Structure (SMILES): OC[C@H]1O[C@H](n2nnnc2Cn2nnc3ccccc32)[C@H](O)[C@@H](O)[C@@H]1O
zone of inhibition at 10 µg/mL [16]: 11 to 15 mm | zone of inhibition at 10 µg/mL [17]: 11 to 15 mm | zone of inhibition at 10 µg/mL [18]: 11 to 15 mm | zone of inhibition at 10 µg/mL [19]: 11 to 15 mm | zone of inhibition at 10 µg/mL [20]: 11 to 15 mm | zone of inhibition at 10 µg/mL [21]: 11 to 15 mm | zone of inhibition at 10 µg/mL [22]: 11 to 15 mm | zone of inhibition at 10 µg/mL [23]: 11 to 15 mm | zone of inhibition at 10 µg/mL [24]: 11 to 15 mm

Structure (SMILES): CCC(C)n1ncn(-c2ccc(N3CCN(c4ccc(OCC5COC(Cn6cncn6)(c6ccc(Cl)cc6Cl)O5)cc4)CC3)cc2)c1=O (centres undefined) [ITRACONAZOLE]
MIC [12]: 6.25 µg/mL (≈ 8.86 µM) | MIC [13]: 6.25 µg/mL (≈ 8.86 µM) | MIC [14]: 6.25 µg/mL (≈ 8.86 µM) | MIC [15]: 6.25 µg/mL (≈ 8.86 µM)

Structure (SMILES): C[C@H]1COc2c(N3CCN(C)CC3)c(F)cc3c(=O)c(C(=O)O)cn1c23.C[C@H]1COc2c(N3CCN(C)CC3)c(F)cc3c(=O)c(C(=O)O)cn1c23.O [LEVOFLOXACIN]
inhibition zone (IZ) [1]: 28 - 30 mm | inhibition zone (IZ) [2]: 28 - 30 mm | inhibition zone (IZ) [3]: 28 - 30 mm
